Consider one compound from US8946301B2, “Targeting of T-lymphocytes to treat amyotrophic lateral sclerosis” (ALS Therapy Development Institute, priority 2011, dated 2015).

In assay [1] the test system is blood cells. The experiment in a line: Complete blood cell counts in whole blood. The assay is classed as in vivo, mouse. To be noted: vs untreated SOD1. On the procedure:
FIG. 6 is a graph showing complete blood cell counts in whole blood. SOD1 animals received a loading dose of 2.5 mg/kg fingolimod orally, then oral 1.8 mg/kg once weekly for 3 weeks. Complete blood cell counts included basophils (BAS), eosinophils (EOS), monocytes (MON), lymphocytes (LYM), neutrophils (NEU), and white blood cells (WBC).
Whole blood counts were also measured. Upon sacrifice, blood was removed and complete blood cell counts were performed.

Assay [2] deals with experimental autoimmune neuritis. Particulars: Zhang et al. 2008, cited from earlier work.
Assay [3] relates to CD11b positive macrophages. Put plainly: Macrophage infiltration into gastrocnemius muscle / peripheral axons (anti-CD11b staining). Type of assay: in vivo, mouse. To be noted: SOD1 animals, load 2.5 mg/kg then 1.8 mg/kg oral weekly from day 50, gastrocnemius at day 100, vs untreated SOD1. The method, then:
SOD1 animals were treated with a loading dose of 2.5 mg/kg fingolimod, followed by weekly oral dosing of 1.8 mg/kg. Dosing was initiated at 50 days of age for the three cohorts: • 1) Non transgenic controls • 2) untreated SOD1 • 3) SOD1 Fingolimod Treated “High Dose” (Load 2.5 mg/kg, 1.8 mg/kg Oral q7d)
Gastrocnemius muscle was harvested from non-transgenic control, untreated SOD1 and fingolimod treated animals at 100 days of age. Tissues were immediately embedded in OCT after harvesting. Frozen sections were H&E stained and hybridized with antibodies to detect macrophages (αCD11b antibody).

In assay [4] the test system is CD45R positive cells. Put plainly: Circulating CD45R positive cells in whole blood of SOD1 mice. Particulars: SOD1 animals, high and low dose groups. Type of assay: in vivo, mouse. On the procedure:
The following dosage regimen was used to determine the dose dependent effects of fingolimod in SOD1 mice: • Cohorts: • 1) SOD1 Fingolimod Treated “High Dose” (Load 2.5 mg/kg, 1.8 mg/kg Oral q7d) • 4 hour post final dose harvest • 7 day post final dose harvest • 2) SOD1 Fingolimod Treated “Low Dose” (Load 0.44 mg/kg, 0.32 mg/kg Oral q7d) • 4 hour post final dose harvest • 7 day post final dose harvest • 3) SOD1 Vehicle Control • 4 hour post final dose harvest • 7 day post final dose harvest
The predicted plasma fingolimod load for both the high dose and the low dose regimes were determined, see FIGS. 2A and 2B. Tissues were harvested 4 hours after the third fingolimod dose. This time point was selected to best characterize the behavior of lymphocytes in animals treated with fingolimod when circulating levels of the drug are near peak concentration.

Assay [5] concerns G93A-SOD1 mice. Put plainly: Disease progression, onset and survival in the SOD1 ALS mouse model. The assay is classed as in vivo. Particulars: vs untreated SOD1. The source says:
FIGS. 7A, 7B, 7C, and 7D are charts showing symptomatic neurological disease progression in untreated SOD1 mice and SOD1 fingolimod treated mice. FIGS. 7A and 7C show the results for SOD1 mice having a low number (14-20) of copies of the transgene. FIGS. 7B and 7D show the results for SOD1 mice having a high number (20-25) copies of the transgene. Neurological disease progression was defined as the average neurological score over time for male SOD1 mice. For each chart, the lower line represents the SOD1 fingolimod treated mice; the upper line (i.e., having lower probability at each age in days, Dage) represents the untreated SOD1 mice.
FIG. 8A is a chart comparing disease onset probability as assessed by the Cox Proportional Hazards model in untreated SOD1 and SOD1 fingolimod treated mice. The black right line represents the SOD1 fingolimod treated mice; the gray left line represents the untreated SOD1 mice.
FIG. 8B is a chart comparing survival as assessed by the Cox Proportional Hazards model in untreated SOD1 mice and SOD1 fingolimod treated mice for individual animals. The black right line represents the SOD1 fingolimod treated mice; the gray left line represents the untreated SOD1 mice.
FIG. 9A is a chart showing disease onset probability as calculated by the Weibull method versus time in untreated SOD1 mice and SOD1 fingolimod treated mice. The right line represents the SOD1 fingolimod treated mice; the left line represents the untreated SOD1 mice.
FIG. 9B is a chart showing survival as calculated by the Weibull method versus time in untreated SOD1 mice and SOD1 fingolimod treated mice. The right line represents the SOD1 fingolimod treated mice; the left line represents the untreated SOD1 mice.
To assess the impact of reducing T lymphocyte cell proliferation on disease progression in the SOD1 preclinical animal model, fingolimod was administered to SOD1 mice and parameters of disease progression were measured, including daily measurements of neurological severity score, as well as T lymphocyte cell proliferation.
Neurological scores for both hind legs were assessed daily for each mouse from 50 days of age. The neurological score employed a scale of 0 to 4 that was developed by observation at ALSTDI (Scott et al., 2008). […] Animals were assigned a score of 2 when the toes curled under at least twice during walking a distance of 12 inches, or any part of the foot was dragging along the cage bottom/table. Animals were assigned a score of 3 when they had rigid paralysis or minimal joint movement, or a foot was not being used for forward motion. Animals were assigned a score of 4 when they […] within 30 seconds after being laid on either side. At the point where at least one hind leg was scored as 2, food pellets were left on the cage bedding to permit easy access to food. If both hind legs were scored as 2, Nutra-Gel® (Bio-Serve #S4798) was provided as food in addition to food pellets placed on the cage bedding and a long sipper tube was placed on the water bottle.
Date and cause of death were recorded for each mouse. For humane reasons, animals were closely monitored and sacrificed as moribund prior to actual death using criteria for severe moribundity. To determine duration of survival reliably and humanely, the moribund state, defined as the inability of mice to right themselves 30 seconds after being placed on a side (a neurological score of 4) was used. The moribund mice were scored as “dead,” and were euthanized using carbon dioxide asphyxiation.
To determine the impact of reducing T lymphocyte cell proliferation on disease progression in the SOD1 preclinical animal model, a Weibull analysis was performed on the data from the animal study described in Examples 3-5.

Regarding `CCCCCCCCc1ccc(CCC(N)(CO)CO)cc1` [fingolimod, 2-amino-2-(4-octylphenethyl)propane-1,3-diol], in assay [1] (load 2.5 mg/kg oral then 1.8 mg/kg once weekly for 3 weeks), the “basophils (BAS) count” value is listed as “decreased numbers”. In assay [1] (same regimen), the “eosinophils (EOS) count” value is given as “decreased numbers”, the “lymphocytes (LYM) count” value is listed as “decreased numbers”, the “monocytes (MON) count” value is reported as “decreased numbers” and the “neutrophils (NEU) count” value is listed as “no significant change”. Moreover, in assay [1] (same regimen), the “white blood cells (WBC) count” value was “decreased numbers”. Moreover, the “severity and duration of experimental autoimmune neuritis” value in assay [2] is “reduced the severity and duration”. Besides, the paraparesis result in assay [2] (if administrated with immunization) is on record as “suppress paraparesis”. For the same compound, the “CD11b positive macrophages infiltrating the skeletal muscle / peripheral axons” value in assay [3] was “significantly fewer”. In addition, the “CD11b positive macrophages infiltrating the skeletal muscle / peripheral axons” value in assay [3] (listed as Fingolimod) is given as “ability to block macrophage infiltration into peripheral axons”. In assay [4], the “circulating CD45R positive cells in whole blood (in words)” value is “fewer”. Further, in assay [5] (SOD1 mice), the “disease onset probability (Weibull method)” value was “reduced disease onset probability” and the “survival probability (Weibull method)” value was “increased survival probability”. In assay [5] (male SOD1 mice, high copy number (20-25 copies)), the “neurological score over time” value is “improvement”. Also, the “neurological score over time” value in assay [5] (male SOD1 mice, low copy number (14-20 copies)) is “improvement”. Further, in assay [5] (male SOD1 mice), the “disease onset probability (Cox Proportional Hazards model)” value is given as “delayed onset of disease” and the “survival (Cox Proportional Hazards model)” value is “extended survival”.
